The target in experiment [1] is BRD4-BD12 (1-477) (Homo sapiens (Human), UniProt O60885). As to the kind of experiment: Alphascreen binding assay BRD4-BD12. The settings on record: BRD4(1 2) H4; read-out: Biochemical activity (IC50 μM) BRD4(1 2) H4. The procedure, abridged: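 First, compound was preincubated 1 h at room temperature with the His-tagged BRD4 protein (BD1 44-164 or tandem BD12 1-477) and acetylated H4 peptide. Next, donor and acceptor beads were added at 7.5 μg/ml final. After 30 min, AlphaScreen emission was recorded.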

For experiment [2], the system named is bromodomain. As to the kind of experiment: at least one of the bromodomain cell assays of Example 57. The format is cell-based. The settings on record: at least one of the bromodomain cell assays described in Example 57; read-out: IC50 in at least one of the bromodomain cell assays.
Experiment [3] deals with MV-4-11 cells. The experiment in a line: Oncology cell growth assay MV-4-11 (CellTiter Glo). Type of experiment: cell-based. As to conditions: Homo sapiens, MV4-11, 72 h; read-out: Cell activity (IC50 μM) MV-4-11 3d-Growth. The procedure, abridged: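 MV-4-11 AML cells (MLL-AF4), 3000 per well, exposed to 8-point 1:3 compound titration from 10 μM top concentration (0.2% DMSO) for 72 h. Viability by CellTiter Glo luminescence, normalized to DMSO controls; pIC50 from four-parameter curve fit.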
(In general: In ATP-based viability assays light output follows the ATP content of the culture.)

In experiment [4] the target is BRD4-BD1 (44-164) (Homo sapiens (Human), UniProt O60885). As to the kind of experiment: Alphascreen binding assay BRD4-BD1. As to conditions: BRD4(1) H4; read-out: Biochemical activity (IC50 μM) BRD4(1) H4. The procedure, abridged: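 His-tagged E. coli-expressed BRD4 BD1 (44-164) or BD1-BD2 (1-477) incubated 1 h at room temperature with biotinylated tetra-acetylated histone H4 1-21 peptide and compound in HEPES pH 7.5, NaCl, BSA, Triton X-100, DTT buffer. Ni-chelate/streptavidin AlphaScreen beads (7.5 µg/ml) added, read after 30 min; pIC50 from four-parameter fit.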
In general terms: Bead proximity is the source of the signal in Alpha formats.

This note sets out measurements from patent US10519177B2, “Heterocyclic compounds and uses thereof” (Plexxikon Inc., priority 2013, dated 2019).

The structures appear in SMILES notation.

What is called IC50 is the concentration that gives 50% inhibition. As to `Cc1noc(C)c1-c1cnc2c(-c3cnn(C(F)F)c3)cn(Cc3ccccc3)c2c1` [P-0326, 4-[1-benzyl-3-[1-(difluoromethyl)pyrazol-4-yl]pyrrolo[3,2-b]pyridin-6-yl]-3,5-dimethyl-isoxazole], the IC50 in experiment [1] is under 1 µM; in experiment [2], under 10000 nM; in experiment [3] it was under 1 µM; in experiment [4], under 1 µM.
On to `Cc1noc(C)c1-c1cnc2c(-c3cnn(C)c3)cn(Cc3ccccc3)c2c1` [P-0327, 4-[1-benzyl-3-(1-methylpyrazol-4-yl)pyrrolo[3,2-b]pyridin-6-yl]-3,5-dimethyl-isoxazole], for which the IC50 in experiment [1] was under 1 µM; in experiment [2] it was under 10000 nM; in experiment [3], under 1 µM; in experiment [4], under 1 µM.
Consider `Cc1noc(N)c1-c1cnc2ccn(CC3CCC(F)(F)CC3)c2c1` [P-0328, 4-[1-[(4,4-difluorocyclohexyl)methyl]pyrrolo[3,2-b]pyridin-6-yl]-3-methyl-isoxazol-5-amine], for which the IC50 in experiment [1] was under 1 µM; in experiment [2], under 10000 nM; in experiment [3] it was 1 to 10 µM; in experiment [4], under 1 µM.
Consider `Cc1onc(N)c1-c1cnc2ccn(CC3CCC(F)(F)CC3)c2c1` [P-0329, 4-[1-[(4,4-difluorocyclohexyl)methyl]pyrrolo[3,2-b]pyridin-6-yl]-5-methyl-isoxazol-3-amine], for which the concentration for half-maximal inhibition (IC50) in experiment [1] is under 1 µM; in experiment [2], under 10000 nM; in experiment [3], 1 to 10 µM; in experiment [4], under 1 µM.
For `COC(=O)c1ccc(-c2cn(CC3CCC(F)(F)CC3)c3cc(-c4c(C)noc4C)cnc23)cc1` [P-0330, methyl 4-[1-[(4,4-difluorocyclohexyl)methyl]-6-(3,5-dimethylisoxazol-4-yl)pyrrolo[3,2-b]pyridin-3-yl]benzoate], the IC50 in experiment [1] was under 1 µM; in experiment [2], under 10000 nM; in experiment [3], under 1 µM; in experiment [4] it was under 1 µM.
On to `Cc1noc(C)c1-c1cnc2c(-c3cnn(C)c3)cn(C(CC#N)c3ccccc3)c2c1` (centres unmarked) [P-0331, 3-[6-(3,5-dimethylisoxazol-4-yl)-3-(1-methylpyrazol-4-yl)pyrrolo[3,2-b]pyridin-1-yl]-3-phenyl-propanenitrile], for which the IC50 was under 1 µM in experiment [1], under 10000 nM in experiment [2], under 1 µM in experiment [3] and under 1 µM in experiment [4].
Take `Cc1noc(C)c1-c1cnc2c(-c3cnn(CC(F)(F)F)c3)cn(C(CC#N)c3ccccc3)c2c1` (centres unmarked) [P-0332, 3-[6-(3,5-dimethylisoxazol-4-yl)-3-[1-(2,2,2-trifluoroethyl)pyrazol-4-yl]pyrrolo[3,2-b]pyridin-1-yl]-3-phenyl-propanenitrile]: the IC50 is under 1 µM in experiment [1], under 10000 nM in experiment [2], under 1 µM in experiment [3] and under 1 µM in experiment [4].
With `Cc1noc(C)c1-c1cnc2c(I)cn(Cc3ccccn3)c2c1` [P-0333, 4-[3-iodo-1-(2-pyridylmethyl)pyrrolo[3,2-b]pyridin-6-yl]-3,5-dimethyl-isoxazole], the IC50 is under 1 µM in experiment [1], under 10000 nM in experiment [2], under 1 µM in experiment [3] and under 1 µM in experiment [4].
In the case of `[2H]C([2H])(C1CCC(F)(F)CC1)n1cc(C#CCO)c2ncc(-c3c(C)noc3C)cc21` [P-0370, 3-[1-[dideuterio-(4,4-difluorocyclohexyl)methyl]-6-(3,5-dimethylisoxazol-4-yl)pyrrolo[3,2-b]pyridin-3-yl]prop-2-yn-1-ol], the IC50 in experiment [1] is under 1 µM; in experiment [2], under 10000 nM; in experiment [3] it was under 1 µM; in experiment [4], under 1 µM.
Turning to `Cc1noc(C)c1-c1cnc2c(-c3ccc(C(=O)O)cc3)cn(S(=O)(=O)c3ccccc3)c2c1` [P-0371, 4-[1-(benzenesulfonyl)-6-(3,5-dimethylisoxazol-4-yl)pyrrolo[3,2-b]pyridin-3-yl]benzoic acid], the IC50 in experiment [1] was under 1 µM; in experiment [2], under 10000 nM; in experiment [3], under 1 µM; in experiment [4], under 1 µM.
With `Cc1nnn(C)c1-c1cnc2c(-c3cnn(CC(F)(F)F)c3)cn(CC3(F)CCC(F)(F)CC3)c2c1` [P-0372, 6-(3,5-dimethyltriazol-4-yl)-1-[(1,4,4-trifluorocyclohexyl)methyl]-3-[1-(2,2,2-trifluoroethyl)pyrazol-4-yl]pyrrolo[3,2-b]pyridine], the IC50 in experiment [1] is under 1 µM; in experiment [2] it was under 10000 nM; in experiment [3], under 1 µM; in experiment [4], under 1 µM.
